The results in this text go back to patent publication US4396614A, “Novel steroids” (Uclaf; Roussel, priority 1980, dated 1983).

For test [1], the system named is aldosterone monoacetate. Nature of the test: Antialdosterone activity: diuresis test in surrenalectomized rats (Kagawa/Marcus). In kind it is in vivo, rat. To be noted: surrenalectomized male Sprague Dawley rats, 4 hours urine collection. As to the method:
The study was effected by a test inspired by Kagawa [P.S.E.B.M., Vol. 99 (1958), p. 705] and Marcus [Endocrinology, Vol. 50 (1952), p. 286] in which male rats of the Sprague Dawley SPF 1FFA CREDO strain weighing 180 g were surrenalectomized 7 days before diuresis while anestesized with Imalgene (Ketamine) intraperitoneally at a dose of 100 mg/kg. After the operation and from the night before the start of the test, the rats received physiological serum as drinking water and the animals were held without food or drink for 17 hours before diuresis and the physiological serum was replaced by water containing 5% glucose. The test products were orally administered before placing them in a cage and at the moment of diuresis, the animals received intraperitoneally a hydrosaline surcharge of 5 ml per rat of 9.permill. physiological serum and subcutaneously 1 μg/kg of aldosterone monoacetate in 2.5% alcoholic solution.
The rats were placed in pairs in a diuresis cage without food or drink for 4 hours and at this time, a forced emission was induced by pressure against the bladder and the volume of recovered urine was measured. After careful rinsing of the cages and the glass, the urine volume was adjusted to 50 ml and this solution was treated to determine the amount of potassium and sodium in the urine by flame photometry in an autoanalyszer. […] 125-132]. […]

The target of test [2] is T1, androgen hormonal receptor of prostate cytosol (Rattus norvegicus, UniProt P15207).
T1 construct: The homogenate was centrifuged at 105,000 g per hour and the surnageant or cytosol was adjusted to a dilution of 1/5; from tissue; host or cells: prostate cytosol of male rats castrated 24 hours earlier
T1 sequence (P15207 1-902): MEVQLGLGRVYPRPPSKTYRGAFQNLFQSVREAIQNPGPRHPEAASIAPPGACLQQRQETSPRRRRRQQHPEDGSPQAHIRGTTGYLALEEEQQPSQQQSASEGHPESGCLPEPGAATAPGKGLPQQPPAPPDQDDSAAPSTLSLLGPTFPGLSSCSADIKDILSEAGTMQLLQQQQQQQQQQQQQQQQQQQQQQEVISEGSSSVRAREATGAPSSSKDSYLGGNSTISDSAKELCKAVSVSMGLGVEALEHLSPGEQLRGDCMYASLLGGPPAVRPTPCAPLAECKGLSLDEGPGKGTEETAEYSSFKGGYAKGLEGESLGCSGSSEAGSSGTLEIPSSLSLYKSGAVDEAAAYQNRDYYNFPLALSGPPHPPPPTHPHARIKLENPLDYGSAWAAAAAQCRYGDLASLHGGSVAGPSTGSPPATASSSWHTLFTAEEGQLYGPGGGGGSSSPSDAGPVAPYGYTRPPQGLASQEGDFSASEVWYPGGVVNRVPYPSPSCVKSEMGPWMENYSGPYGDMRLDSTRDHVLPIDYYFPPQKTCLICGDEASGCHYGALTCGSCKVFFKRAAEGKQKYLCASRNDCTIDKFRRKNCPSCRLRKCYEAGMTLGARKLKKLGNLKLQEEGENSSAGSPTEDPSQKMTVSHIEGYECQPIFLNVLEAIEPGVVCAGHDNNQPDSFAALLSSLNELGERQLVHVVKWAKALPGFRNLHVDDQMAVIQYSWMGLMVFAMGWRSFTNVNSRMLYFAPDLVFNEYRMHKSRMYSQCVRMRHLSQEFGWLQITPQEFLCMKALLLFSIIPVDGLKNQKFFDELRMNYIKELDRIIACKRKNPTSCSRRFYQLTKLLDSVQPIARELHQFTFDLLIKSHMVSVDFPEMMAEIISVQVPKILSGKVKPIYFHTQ
The test is described as follows: Androgenic activity: hormonal receptor method of Raynaud, displacement of tritiated 17α-methyl-Δ^4,9,11-estratriene-17β-ol-3-one (Product R) in prostate cytosol. It counts as binding. To be noted: prostate cytosol of castrated male rats, incubated at 0° C. for 2 hours.
Procedure: The latter was homogenized in a buffered solution of 10 mm of tromethamine, 0.25 M of saccharose and a pH of 7.4 with hydrochloric acid. The homogenate was centrifuged at 105,000 g per hour and the surnageant or cytosol was adjusted to a dilution of 1/5 (weight/volume). The resulting solution was incubated at 0° C. for 2 hours in tubes with the same volume of cytosol with a fixed concentration of tritiated 17α-methyl-Δ^4,9,11 - estratriene-17β-ol-3-one (designated as tritiated Product R) in the presence or not of an increasing concentration of radioinactive 17α-methyl-Δ^4,9,11 -estratriene-17β-ol-3-one (designated as cold product R) or the test product. […] The plots were the curves representing the percentage of tritiated product R as a function of the log of the concentration of cold product R or the test product of the I50 straight line parallel to the axis of the abcisses and ordinates.
B/T=(B/T Max.+B/T Min.)/2
B/T max. is the percentage of tied tritiated product R when the product is not added and B/T min, is the percentage of tied tritiated product R when the maximum amount of cold product R is added.

`CCC[C@@H]1CC2=CC(=O)C=C[C@]2(C)[C@H]2CC[C@@]3(C)[C@@H](CC[C@@]3(O)CCC(=O)O)[C@H]12` [Example 10, Potassium 7α-propyl-17α-Δ^1,4-pregnadiene-17β-ol-3-one-21-carboxylate]: the “percentage of inhibition of the activity of 1 μg/kg of aldosterone monoacetate (log of ratio sodium concentration/potassium concentration in urine)” value was determined as 30% in test [1] (0.4 mg/kg orally) and 80% in test [1] (2 mg/kg orally). The “ARL (relative affinity = 100×(CT/CX))” value in test [2] was found to be 0.02.
